# Reference: paper PMC9571290, “Preliminary Structure–Activity Relationship Study of the MMV Pathogen Box Compound MMV675968 (2,4-Diaminoquinazoline) Unveils Novel Inhibitors of Trypanosoma brucei brucei” (Molecules, 2022)
# Where two headings read alike, the source gives them in different places.
# Tests used:
# [1] = tested on: bloodstream forms of Trypanosoma brucei brucei; test: resazurin-based antitrypanosomal inhibition assay; assay type: cell-based; conditions: for pIC50 T. b. b.: Table 3
# Experimental: Parasites were axenically cultivated in sterile vented flasks containing complete Hirumi’s modified Iscove’s medium 9 (HMI-9) [500 mL IMDM (Iscove’s modified Dulbecco’s medium) (Gibco, Waltham, MA, USA) supplemented with 10% (v/v) heat-inactivated fetal bovine serum (HIFBS) (Sigma Aldrich), 10% (v/v) serum plus (Sigma Aldrich), HMI-9 supplement (1 mM hypoxanthine, 0.16 mM thymidine, 50 µM bathocuproine disulfonic acid, 1.5 mM cysteine, 1.25 Mm pyruvic acid, 0.2 mM 2-mercaptoethanol (Sigma Aldrich)), and 1% (v/v) penicillin–streptomycin (Sigma Aldrich) and incubated at 37 °C in a 5% CO2 atmosphere.
# The in vitro inhibitory potency of the 400 MMVPB compounds against bloodstream forms of Trypanosoma brucei brucei was evaluated using the resazurin-based inhibition assay as previously described. Briefly, parasites at their mid-logarithmic growth phase were counted, and the cell density was adjusted with fresh complete HMI-9 medium to 2 × 10^5 trypanosomes per mL. Then, 90 µL of parasite suspension was then distributed into the wells of 96-well flat-bottomed plates containing 10 µL of compounds for a final test concentration of 10 µM. […] Each assay plate was set up in duplicate and repeated two times. The percent parasite inhibition was determined for each compound based on fluorescence readouts relative to the mean fluorescence of negative control wells.
# y = 100/[1+ 10^(logIC50/99-x)H], where H is the hill coefficient or slope factor [60].
# Vero cells = test: cytotoxicity against Vero cells (resazurin viability assay); conditions: read-out: CC50 Vero; Table 3
# Experimental: (§1) The resulting pellet was resuspended and counted in a Neubauer chamber in the presence of trypan blue to exclude nonviable cells colored in blue. Once the cell load was estimated, they were either used for the next passage in a new flask or processed for the cytotoxicity assay.
# (§2) Briefly, Vero cells at a density of 10^4 cells per well were plated in 100 µL of complete DMEM and incubated overnight to allow cell attachment. Plates were then controlled under an inverted fluorescence microscope (Lumascope LS520) to ensure adherence, sterility and cell integrity. Thereafter, culture medium from each well was carefully emptied, and plates were filled with 90 µL of fresh complete medium followed by the addition of 10 µL of serial 5-fold dilutions of compound solutions. […] Fluorescence was then read using a Magelan Infinite M200 fluorescence multiwell plate reader (Tecan) with excitation and emission wavelengths of 530 and 590 nm, respectively. The percentage of cell viability was calculated from readouts, and the median cytotoxic concentration (CC50) for each compound was deduced from concentration–response curves using GraphPad Prism 8.0 software as described above. Selectivity indexes were then determined for each test substance as follows: SI = CC50(Vero cells)/IC50(T. brucei brucei).
# in vitro = conditions: African green monkey
# Experimental: as §1, §2
# [2] = Table 3, MMVPB compounds with known potency against other diseases, read-out: IC50 ± SD T. b. b.
# [3] = Trypanosoma brucei, Table 4, analogs of MMV675968, solid material, read-out: IC50 ± SD T. b. b.
Structure (SMILES),"IC50 [1, 2] [µM]",pIC50 T. b. b. ([1]; negative log of IC50 in molar),CC50 (Vero cells) [µM],further results
Cc1cnc(N2CCN[C@@H](Cc3ccccc3)C2)nc1Oc1ccc(-n2ccnc2)cc1 [MMV687765],2.3 ± 0.3,5.64,> 100,
Nc1nccc2ccc(-c3ccc4nccn4c3)cc12 [MMV023233],8.43 ± 0.06,5.07,29.8 ± 0.7,
O=C(Nc1ccc(N2CCNCC2)nc1)c1oc(-c2ccccc2)nc1C(F)(F)F [MMV024937],1.4 ± 0.5,5.85,14.6 ± 0.6,
Brc1cncc(-c2cc(NCCCn3ccnc3)nc(-c3ccccc3)n2)c1 [MMV661713],1.9 ± 0.02,5.72,> 100,
CC(C)(C)c1cnc(NC(=O)c2ccccc2O)s1 [MMV495543],0.7 ± 0.25,,,
O=C(Nc1ccccc1)c1ccc(-c2cc3ccncc3cc2OC2CCNCC2)s1 [MMV024035],1.8 ± 0.1,5.74,35.75 ± 0.08,
NC(=O)c1cc(-c2ccsc2)ccc1OCCOc1ccccc1 [MMV687138],0.5 ± 0.01,,> 100,
COc1cccc(-c2nc3c(N4CCCC4)cccc3n2CC2CCCN2)n1 (stereo not drawn) [MMV687703],1.7 ± 0.06,5.76,> 100,
CCOc1ccc2cc(-c3nn(CC4CCN(C)CC4)c4ncnc(N)c34)ccc2c1 [MMV688854],8.5 ± 0.06,5.07,13.4 ± 1.5,
COc1ccc(NCc2ccc3nc(N)nc(N)c3c2)cc1 [Analog 8],,,,"IC50 [1, 3]: 0.25 ± 0.01 µM; IC50 ([1]; Trypanosoma brucei, Table 4, negative log of IC50 in molar, read-out: pIC50 T. b. b. (converted)): 0.251 µM; CC50 at 48 h (in vitro): 30.9 ± 2.3 µM"
COc1ccccc1NCc1cnc(N)nc1N [Analog 16],,,,"IC50 [1, 3]: > 10 µM; CC50 at 48 h (in vitro): > 100 µM"
COc1cc(-c2cc(-c3ccc(S(C)(=O)=O)cc3)cnc2N)ccc1O [MMV010576],1.5 ± 0.3,5.82,> 100,
COc1ccc(NC(=O)c2ccc3nc(N)nc(N)c3c2)cc1OC [Analog 12],,,,"IC50 [1, 3]: > 10 µM; CC50 at 48 h (in vitro): > 100 µM"
"CNCCC(Oc1ccc(C(F)(F)F)cc1)c1ccccc1 (stereo not drawn) [MMV001561, fluoxetine, reference compound]",,,,CC50 at 48 h (in vitro): 41.5 ± 1 µM
CCc1ccc(S(=O)(=O)Nc2cc(CN3CCN(CCC(C)C)CC3)ccc2C)cc1 [MMV688124],2.9 ± 0.08,5.53,> 100,
CC(=O)N1CCc2cc3nc(C)cc(C)c3cc21 [MMV054312],1.29 ± 0.42,5.88,> 100,
Nc1ncc(C(=O)Nc2cccnc2)c(N)n1 [Analog 22],,,,"IC50 [1, 3]: > 10 µM; CC50 at 48 h (in vitro): > 100 µM"
CC(Oc1ccccc1)C(=O)Nc1nc(-c2ccccn2)cs1 (stereo not drawn) [MMV676411],9.44 ± 0.09,5.02,,
Nc1nc2cc(-c3cncc(Oc4ccc(F)cc4)c3)ccc2[nH]1 [MMV687248],0.5 ± 0.07,,> 100,
CN1CCN(CCCOc2ncc(Nc3ncc(-c4ccc(C(F)(F)F)c(F)c4)nc3C(N)=O)cn2)CC1 [MMV687812],1.7 ± 0.1,5.76,2.66 ± 0.3,
COc1ccc(-c2cncc3ccc(C(=O)NCCCn4ccnc4)nc23)cc1 [MMV020670],1.9 ± 0.02,5.72,,
CN1CCC(c2cc(-c3ccncc3)c(-c3ccc(F)cc3)[nH]2)CC1 [MMV688703],3.18 ± 1.3,5.49,,

Structure (SMILES),"IC50 [1, 2] [µM]",pIC50 T. b. b. ([1]; negative log of IC50 in molar),CC50 (Vero cells) [µM],further results
CS(=O)(=O)c1ccc(C(=O)N(CC2CCCO2)c2nc3ccccc3s2)cc1[N+](=O)[O-] (stereo not drawn) [MMV688761],8.33 ± 0.09,5.08,> 100,
"COc1cc([C@@H]2c3cc4c(cc3[C@H](O)[C@H]3COC(=O)[C@H]23)OCO4)cc(OC)c1OC [Podophyllotoxin, reference compound]",,,,CC50 at 48 h (in vitro): 0.43 ± 0.14 µM
O=C(C(Cc1c[nH]c2ccccc12)NS(=O)(=O)c1ccc(Cl)cc1)N1CCCCC1 (stereo not drawn) [MMV085210],0.9 ± 0.1,,> 100,
"COc1cc(NC(C)CCCN)c2ncccc2c1 (stereo not drawn) [MMV000023, Primaquine, reference compound]",,,,"IC50 ([1]; Trypanosoma brucei, Table 1, reference drugs included in MMVPB, read-out: IC50 ± SD T. b. b.): 8.4 ± 0.01 µM; IC50 ([1]; Trypanosoma brucei, Table 1, negative log of IC50 in molar, read-out: pIC50 T. b. b. (converted)): 8.51 µM"
O=C(NCCN1CCCC1)c1cc(NCCCCN2CCC(F)(F)CC2)nc2ccc(Cl)cc12 [MMV667494],1.3 ± 0.5,5.88,> 100,
c1cncc(NCc2ccc(-c3cc4ccncc4cc3OC3CCNCC3)s2)c1 [MMV023969],8.09 ± 0.3,5.09,26.3 ± 0.4,
Cc1ccc2[nH]c(C3CCCNC3)c(-c3ccncc3)c2c1 (stereo not drawn) [MMV024311],9.78 ± 0.2,5.00,,
O=C(Nc1nc(-c2ccccn2)cs1)c1cncn1-c1ccccc1 [MMV676512],1.9 ± 0.07,5.72,,
CN1CCC(NCc2cccc(-c3ccc(S(=O)(=O)NCc4ccccc4)cc3)c2)CC1 [MMV022029],1.7 ± 0.7,5.76,13.1 ± 0.2,
O=C(Nc1ccc(C(F)(F)F)c(C(F)(F)F)c1)c1cc(Cl)ccc1O [MMV687807],0.5 ± 0.04,,11 ± 1.3,
CN(C)c1cc(NC(=O)Nc2ccccc2)c2ccccc2n1 [MMV006901],8.45 ± 0.05,5.07,14.6 ± 0.02,
Cc1[nH]c2ccccc2c1C(c1cccs1)N1CCN(C)CC1 (stereo not drawn) [MMV688768],8.36 ± 0.08,5.07,> 100,
O=C(Nc1ccc(N2CCNCC2)cc1)c1ccn2ncc(-c3cccc(Cl)c3)c2n1 [MMV022478],1.7 ± 0.01,5.76,11.42 ± 0.07,
COc1ccc(N(CCc2cccc(C)n2)C(=O)C2CCCCC2)cc1 [MMV675996],0.8 ± 0.02,,,
CC(C)n1nc(-c2cc3c(Cl)cccc3[nH]2)c2c(N)ncnc21 [MMV688417],4.38 ± 0.9,5.36,13.6 ± 2.9,
COc1ccc(CCN2CCC(NCc3cccc(N(C)C)c3)CC2)cc1 [MMV011511],8.94 ± 0.7,5.05,> 100,
OCCc1ccc(Nc2nccc(-c3nnc4ccccn34)n2)cc1 [MMV028694],1.8 ± 0.1,5.74,10.36 ± 0.1,
CNc1nnc(Sc2cnn(-c3ccccc3)c(=O)c2Cl)s1 [MMV688763],0.8 ± 0.1,,8.14 ± 0.01,
Cc1cc(C)nc(-n2nc(C)cc2Nc2ccccc2)n1 [MMV062221],1.7 ± 0.6,5.76,,
Cc1cc(Nc2ccncc2)n2nc(C)c(-c3ccccc3Cl)c2n1 [MMV016136],8.61 ± 0.3,5.06,,
CCOC(=O)c1c(NC(=O)c2c(F)c(F)c(F)c(F)c2F)sc(C(N)=O)c1C [MMV153413],1.7 ± 0.1,5.76,> 100,
Cn1c(=O)c2c(S(C)(=O)=O)snc2n(C)c1=O [MMV687251],1.9 ± 0.01,5.72,6.4 ± 2,
